Results on 13 compounds are retold here after ChEMBL document CHEMBL1152690, “The spirocyclopropyl moiety as a methyl surrogate in the structure of l-fucosidase and l-rhamnosidase inhibitors” (Bioorg Med Chem, 2009).

Test [1] can be described thus: Inhibition of Penicillium decumbens Alpha-L-rhamnosidase by para-nitrophenolate release assay.
Test [2] relates to Penicillium decumbens. As to the kind of experiment: Inhibition of Penicillium decumbens Alpha-L-rhamnosidase at 1 mM by para-nitrophenolate release assay.
The subject of test [3] is Penicillium decumbens. As to the kind of experiment: Inhibition of Penicillium decumbens lysosomal Alpha-L-rhamnosidase at 1 mM by para-nitrophenolate release assay.
Test [4] deals with T1, Tissue alpha-L-fucosidase (Bos taurus) (UniProt Q2KIM0).
T1 sequence (whole entry): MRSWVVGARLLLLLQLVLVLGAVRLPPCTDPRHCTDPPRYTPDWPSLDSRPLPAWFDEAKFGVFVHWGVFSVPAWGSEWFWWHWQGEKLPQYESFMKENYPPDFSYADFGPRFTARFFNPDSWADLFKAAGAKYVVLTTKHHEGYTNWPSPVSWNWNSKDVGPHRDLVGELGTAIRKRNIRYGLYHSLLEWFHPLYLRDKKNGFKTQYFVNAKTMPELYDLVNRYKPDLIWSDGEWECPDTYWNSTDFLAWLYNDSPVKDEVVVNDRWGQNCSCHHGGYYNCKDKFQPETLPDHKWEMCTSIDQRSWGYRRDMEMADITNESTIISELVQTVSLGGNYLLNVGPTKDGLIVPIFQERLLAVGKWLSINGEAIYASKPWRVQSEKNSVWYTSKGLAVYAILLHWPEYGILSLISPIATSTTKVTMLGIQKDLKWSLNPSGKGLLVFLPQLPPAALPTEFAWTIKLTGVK
To be noted: 1 mM.
Description: Inhibition of bovine lysosomal alpha-L-fucosidase at 1 mM by para-nitrophenolate release assay

In test [5] the target is Beta-galactosidase (Escherichia coli) (UniProt Q8VNN2). As to the kind of experiment: Inhibition of Escherichia coli beta-galactosidase at 1 mM.
The next test deals with Coffea arabica. As to the kind of experiment: Inhibition of coffee bean alpha-galactosidase at 1 mM.
Test [6] deals with Aspergillus niger. As to the kind of experiment: Inhibition of Aspergillus niger beta-xylosidase at 1 mM.
The next test concerns Oryza sativa. As to the kind of experiment: Inhibition of rice alpha-glucosidase at 1 mM.
A further test is filed under the species Bos taurus. As to the kind of experiment: Inhibition of bovine kidney beta-N-acetylglucosaminidase at 1 mM.
The target of test [7] is T1, Tissue alpha-L-fucosidase (Bos taurus). As to the kind of experiment: Inhibition of bovine kidney alpha-L-fucosidase at 1 mM by para-nitrophenolate release assay.
Test [8] has as its system Canavalia ensiformis. As to the kind of experiment: Inhibition of jack bean alpha-mannosidase at 1 mM.
In the next test the test system is Prunus dulcis. As to the kind of experiment: Inhibition of almond beta-glucosidase at 1 mM.
A further test has as its system Helix pomatia. As to the kind of experiment: Inhibition of snail beta-mannosidase at 1 mM.
Test [9] has as its system Aspergillus niger. As to the kind of experiment: Inhibition of Aspergillus niger amyloglucosidase at 1 mM.
For test [10], the target named is T2, Beta-galactosidase (Aspergillus oryzae) (UniProt Q2U7N3).
T2 sequence (whole entry): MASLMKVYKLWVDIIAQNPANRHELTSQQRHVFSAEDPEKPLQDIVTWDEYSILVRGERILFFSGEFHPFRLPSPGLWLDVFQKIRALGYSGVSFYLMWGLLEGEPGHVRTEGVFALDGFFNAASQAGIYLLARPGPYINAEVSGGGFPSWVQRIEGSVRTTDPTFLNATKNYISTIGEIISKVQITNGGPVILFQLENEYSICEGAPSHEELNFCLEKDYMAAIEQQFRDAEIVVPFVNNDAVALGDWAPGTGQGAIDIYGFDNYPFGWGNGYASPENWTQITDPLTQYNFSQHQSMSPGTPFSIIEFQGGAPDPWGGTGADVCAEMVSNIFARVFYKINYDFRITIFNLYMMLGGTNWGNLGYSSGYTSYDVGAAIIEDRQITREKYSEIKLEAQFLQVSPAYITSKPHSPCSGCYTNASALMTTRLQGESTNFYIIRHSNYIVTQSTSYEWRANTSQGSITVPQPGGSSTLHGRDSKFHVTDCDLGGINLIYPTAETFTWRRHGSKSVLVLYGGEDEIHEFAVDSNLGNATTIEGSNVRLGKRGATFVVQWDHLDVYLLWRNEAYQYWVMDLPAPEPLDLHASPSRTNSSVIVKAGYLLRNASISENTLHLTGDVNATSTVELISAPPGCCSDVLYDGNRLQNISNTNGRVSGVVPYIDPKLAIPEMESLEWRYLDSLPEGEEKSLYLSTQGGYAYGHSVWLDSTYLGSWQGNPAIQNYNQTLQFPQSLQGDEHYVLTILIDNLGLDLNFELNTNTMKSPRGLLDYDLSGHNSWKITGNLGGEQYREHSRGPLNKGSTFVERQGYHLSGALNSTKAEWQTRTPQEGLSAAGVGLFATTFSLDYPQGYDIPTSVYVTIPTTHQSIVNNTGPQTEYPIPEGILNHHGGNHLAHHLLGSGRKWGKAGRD
As to the kind of experiment: Inhibition of Aspergillus oryzae beta-galactosidase at 1 mM.

Another test relates to Saccharomyces cerevisiae. As to the kind of experiment: Inhibition of yeast alpha-glucosidase at 1 mM.
Test [11] concerns Canavalia ensiformis. As to the kind of experiment: Inhibition of jack bean beta-N-acetylglucosaminidase at 1 mM.
Test [12] concerns the target T3, Tissue alpha-L-fucosidase (Bos taurus, UniProt Q2KIM0).
T3 sequence (Q2KIM0 whole entry): T1 sequence (whole entry)
As to the kind of experiment: Inhibition of bovine kidney alpha-L-fucosidase by para-nitrophenolate release assay.

Active and inactive are the calls of the source. No cut-off for these calls is given here.

Sequence of Beta-galactosidase (Escherichia coli) (Q8VNN2 whole entry, looked up): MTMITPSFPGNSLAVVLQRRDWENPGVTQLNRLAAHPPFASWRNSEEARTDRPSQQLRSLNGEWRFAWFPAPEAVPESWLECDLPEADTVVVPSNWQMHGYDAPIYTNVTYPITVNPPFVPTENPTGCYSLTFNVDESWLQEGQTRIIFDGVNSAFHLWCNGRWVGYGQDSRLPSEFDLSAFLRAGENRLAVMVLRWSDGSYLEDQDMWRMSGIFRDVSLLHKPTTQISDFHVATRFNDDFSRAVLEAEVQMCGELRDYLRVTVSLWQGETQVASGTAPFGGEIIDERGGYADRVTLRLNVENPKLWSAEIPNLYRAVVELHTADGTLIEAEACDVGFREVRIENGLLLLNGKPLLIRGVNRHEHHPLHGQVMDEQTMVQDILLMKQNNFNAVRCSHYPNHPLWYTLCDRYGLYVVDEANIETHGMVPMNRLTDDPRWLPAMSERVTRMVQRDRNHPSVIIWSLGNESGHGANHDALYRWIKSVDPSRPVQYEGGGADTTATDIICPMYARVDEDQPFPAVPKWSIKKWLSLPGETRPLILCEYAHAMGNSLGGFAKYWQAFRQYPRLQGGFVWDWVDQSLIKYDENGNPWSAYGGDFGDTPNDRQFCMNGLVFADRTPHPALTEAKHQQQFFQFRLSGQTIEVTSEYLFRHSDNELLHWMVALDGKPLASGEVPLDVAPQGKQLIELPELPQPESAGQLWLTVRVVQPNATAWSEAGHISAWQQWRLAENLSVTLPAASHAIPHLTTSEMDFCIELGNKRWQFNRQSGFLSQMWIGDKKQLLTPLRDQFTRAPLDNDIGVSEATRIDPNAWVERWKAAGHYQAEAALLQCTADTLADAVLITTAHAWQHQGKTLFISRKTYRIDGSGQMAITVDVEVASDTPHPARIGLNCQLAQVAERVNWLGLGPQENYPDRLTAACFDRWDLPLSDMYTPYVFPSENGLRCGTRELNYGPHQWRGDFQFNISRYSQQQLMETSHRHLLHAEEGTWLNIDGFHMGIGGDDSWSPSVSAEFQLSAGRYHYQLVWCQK

Compound `COc1ccc(C[C@@H]2NC[C@@H](O)[C@H]2O)cc1` came in with a Ki in [1] of 3200 nM.

In test [1], `C[C@@H]1C[C@H](O)C2[C@@H](O)[C@@H](O)CN2C1` (single isomer, unassigned) displayed a Ki of 30 nM.

Compound `COc1ccc(C[C@@H]2NC[C@H](O)[C@H]2O)cc1` yielded an inhibition constant Ki in test [1] of 3000 nM.

In the test with Penicillium decumbens [2], `C[C@@H]1NC[C@H](O)[C@H](O)[C@H]1O` yielded an inhibition of 0%. In addition, the inhibition entry (with Penicillium decumbens [3]; in [4]) was “inactive” in each case.

For the compound `O[C@@H]1[C@@H](O)C=NC12CC2`, the inhibition entry (in test [5]; in the test with Coffea arabica; in the test with Aspergillus niger [6]; in the test with Oryza sativa; in the test filed under Bos taurus; with Canavalia ensiformis [8]) was “inactive” each time. Also, the inhibition result (in the test on Prunus dulcis; in the test on Helix pomatia; with Aspergillus niger [9]; in test [10]; with Saccharomyces cerevisiae; with Canavalia ensiformis [11]) was “inactive” each time. Further, the inhibition in the test on Penicillium decumbens [2] was 72%; in [7] it was 19%.

In turn, `O[C@H]1C=NC2(CC2)[C@H]1O` came in with a Ki in [1] of 57000 nM. Further, the inhibition entry (in test [5]; in the test with Coffea arabica; in the test on Aspergillus niger [6]; in the test on Oryza sativa; in the test listed under Bos taurus; in the test with Canavalia ensiformis [8]) was “inactive” throughout. Further, the inhibition entry (in the test with Prunus dulcis; in the test on Helix pomatia; in the test on Aspergillus niger [9]; in [10]; in the test with Saccharomyces cerevisiae; in the test with Canavalia ensiformis [11]) was “inactive” each time. In addition, the inhibition is 87% in the test on Penicillium decumbens [2] and 76% in test [7].

Compound `C[C@@H]1NC[C@H](O)[C@H]1O` yielded a Ki in [1] of 5500 nM.

`O[C@@H]1[C@@H](O)C2(CC2)NC[C@@H]1O`: the inhibition entry (in [5]; with Coffea arabica; in the test on Aspergillus niger [6]; with Oryza sativa; in the test listed under Bos taurus; in [7]) was “inactive” throughout. In addition, the inhibition entry (with Canavalia ensiformis [8]; with Prunus dulcis; with Helix pomatia; in the test with Aspergillus niger [9]; in [10]; with Saccharomyces cerevisiae) was “inactive” throughout. In addition, in the test on Canavalia ensiformis [11], the inhibition result was “inactive”. The inhibition in the test on Penicillium decumbens [2] is 72%.

For `O[C@H]1[C@H](O)CNC2(CC2)[C@H]1O`, the inhibition entry (in [5]; with Coffea arabica; in the test on Aspergillus niger [6]; in the test with Oryza sativa; in the test with Penicillium decumbens [2]; in the test listed under Bos taurus) was “inactive” throughout. Further, the inhibition entry (with Canavalia ensiformis [8]; in the test with Prunus dulcis; in the test on Helix pomatia; with Aspergillus niger [9]; in test [10]; in the test with Saccharomyces cerevisiae) was “inactive” in each case. In addition, the inhibition result with Canavalia ensiformis [11] was “inactive”. This compound also registered a Ki in test [12] of 18000 nM. The inhibition in test [7] was 83%.

Take `C[C@@H]1N=C[C@H](O)[C@@H]1O`: in [12], the Ki stood at 10 nM.

On to `C[C@H]1NC[C@H](O)[C@H](O)[C@H]1O`, for which the Ki in test [1] and in test [12] was 1000 nM each time. In test [7], the inhibition stood at 99%.

For `C[C@@H]1N[C@@H](O)[C@@H](O)[C@H](O)[C@@H]1O`, the Ki in [12] was found to be 1 nM.

Compound `C[C@@H]1N=C[C@H](O)[C@H]1O` displayed an inhibitory constant (Ki) in test [1] of 140 nM.
